Test results: patent publication US6703413B2 (Rhode Island Hospital, priority 1999, dated 2004)
Where two headings read alike, the source gives them in different places.

What was measured:
U-251 glioma cells = test: Cell growth inhibition, 3 d exposure, cell counting; assay type: cell-based; conditions: Homo sapiens, 72 h, U-251 (brain)
Method: (§1) One ml of this cell suspension was added to each well of a 12 well cell culture plate that contained 3 ml of appropriate media plus serum. […] Control wells received 40 μl of 5% Kollidon 17 PF alone. Seventy-two hours later, all cells were harvested by trypsinization and cell number determined electronically using a Coulter Model Z1 particle counter (Coulter Corp., Miami, Fla.) to assess cell growth inhibition. Each experiment was performed in duplicate and repeated a minimum of three times.
(§2) Cells were seeded at a density of 1-5×10^4 cells in each well of a 6 well tissue culture flask. […] After three days, cells were harvested by trypsinization and cell number determined electronically. Cell growth inhibition was determined by comparison to non-Taurolidine exposed control cultures. The IC50 was calculated as the concentration required to inhibit cell number by 50%.

A-549 lung tumor cells = test: as above; assay type: cell-based; conditions: Homo sapiens, A549, 72 h
Method: as §1, §2

HT-29 colon tumor cells = test: as above; assay type: cell-based; conditions: Homo sapiens, 72 h
Method: as §1, §2

[1] = system: SKOV-3 human ovarian tumor cells; test: as above; assay type: cell-based; conditions: SK-OV-3, 72 h, SKOV-3 (ovary)
Method: as §1, §2

[2] = system: NIH-3T3 murine fibroblasts; test: as above; assay type: cell-based
Method: as §1, §2

[3] = system: SKOV3 human ovarian tumor cell line; test: Mouse model of recurrent ovarian cancer, intraperitoneal lavage; assay type: in vivo, Holland Sprague-Dawley mice; conditions: i.p. lavage from 5 days after 5×10^6 tumor cells, 3 times a day for 4 days, 30 mg/day
Method: Holland Sprague-Dawley mice were injected with 5×10^6 tumor cells (e.g., SKOV3 human ovarian tumor cell line) to mimic a condition of advanced ovarian cancer. […] At least a 75-80% reduction in tumor foci was observed.

[4] = system: SKOV-3 human ovarian tumor xenografts; test: Therapeutic effectiveness against i.p. human ovarian tumor xenografts; assay type: in vivo, female nude mice
Description: Fourteen days following the final Taurolidine injection, mice in all groups were sacrificed and the peritoneal cavity examined for the presence of tumors. Each experimental was repeated three times and the pooled number of animals in each group ranged from 15-21.
Fourteen days following the final Taurolidine injection, mice in all groups were sacrificed, i.p. ovarian tumor xenografts removed and tumor weighed. Each experiment was repeated three times and the pooled number of animals in each group ranged from 15-21. Each bar represents the mean (±SE) tumor weight of 15-21 animals. ***p≦0.001, **** p≦0.0001.
To evaluate therapeutic effectiveness, mice received a single intraperitoneal injection of 5×10^6 SKOV-3 cells in a volume of 0.5 ml. Immediately thereafter, mice were randomly divided into treatment groups of 7 animals. […] Control animals received 1 ml injections of 5% Kollidon 17 PF alone. Animals were examined daily and body weight recorded twice weekly. […] The mean tumor weight for each treatment group was calculated and statistical analysis of differences in the mean tumor weight between treatment groups employed the Student's t-test. p-values of ≦0.05 were considered significant.
Studies next evaluated the antineoplastic activity of this regimen in mice bearing i.p. human ovarian tumor xenografts derived from the SKOV-3 cell line. Mice were injected i.p. with 5×10^6 SKOV-3 cells. […] Fourteen days following the termination of Taurolidine therapy, mice were sacrificed and all i.p. tumors removed and weighed.

[5] = system: advanced recurrent glioblastoma multiforma; test: Clinical use in tumor patients; assay type: in vivo, human
Method: Taurolidine was administered by i.p. lavage immediately following surgery for removal of recurrent ovarian tumors. For patients with glioblastoma, taurolidine was administered systemically.
Four patients, which were diagnosed with advanced recurrent glioblastoma multiforma, were treated with taurolidine. The prognosis for this group of patients was determined to be approximately 8 weeks of survival.

[6] = Taurolidine-induced toxicity, 3 d i.p. bolus injection regimen; assay type: in vivo; conditions: for mortality (%): i.p., 3 consecutive days
Method: Control animals received 1 ml injections of 5% Kollidon 17 PF alone. Animals were examined daily and body weight recorded twice weekly. A reduction in body weight of greater than 10% was considered significant. The maximally tolerated dose (MTD) was considered to be the dose which produced ˜10% mortality.
During the injection regimen, and daily thereafter for 30 d, mice were weighed and examined. Experiments were repeated a minimum of three times and mortality and weight loss data pooled.

PA-1 cells = test: PARP cleavage, Western-blot; assay type: cell-based, human; conditions: PA-1, 24 h exposure to 50 μM or 100 μM
Method: (§3) Two×10^6 cells were seeded in 150 cm^2 tissue culture flasks. […] After an additional twenty-four hours, cells were harvested, cell number determined, and aliquots derived from equal cell numbers generated from each exposure condition. Total proteins from these whole cell lysates were separated by SDS-PAGE and transferred to nitrocellulose filters. Filters were then immunoblotted to detect intact PARP protein and cleavage fragments by using the clone C-2-10 mouse monoclonal anti-PARP antibody (Zymed Laboratories, San Francisco, Calif.). The resulting protein-antibody complexes were visualized by chemiluminescence techniques.
(§4) Western-blot analysis was used to assess of PARP cleavage. Two×10^6 cells were seeded into separate 75 cm^2 tissue culture flasks containing 20 ml of tissue culture media plus serum. […] Twenty-four hours after the addition of Taurolidine, cells were harvested cell number determined, and aliquots containing an equal cell number were generated from each exposure condition. Total proteins from whole cell lysates generated from these aliquots were separated by SDS-PAGE and electrotransferred to nitrocellulose filters. Filters were then processed to detect intact PARP protein and cleavage fragments by using the clone C-2-10 mouse monoclonal anti-PARP antibody (Zymed Laboratories, San Francisco, Calif.). […]

SKOV-3 cells = test: PARP cleavage, Western-blot; assay type: cell-based, human; conditions: SKOV-3, 24 h exposure to 50 μM or 100 μM
Method: as §3, §4

[7] = system: human Burkitt's lymphoma cell line, Daudi cell line; test: Killing of non-anchorage-dependent tumor cells in suspension culture; assay type: cell-based; conditions: 10-20 μM for 72 hours
Method: Two different non-anchorage-dependent tumor cell lines (a human Burkitt's lymphoma cell line, and a Daudi cell line), and precancerous cell line (a human myelodysplastic cell line) were grown in suspension culture.

[8] = system: TNF; interleukins 1, 6, and 10; VEGF; TGF; test: Factors controlling angiogenesis in treated patients; assay type: in vivo, human; conditions: metastatic colon cancer patients, compared to placebo
Method: Patients with metastatic colon cancer were treated with taurolidine and several factors controlling angiogenesis were measured.

[9] = therapy delayed for up to 3 d after tumor cell injection
[10] = therapy initiated on the day of tumor cell injection

What does the source list for `O=S1(=O)CCN(CN2CCS(=O)(=O)NC2)CN1` [Taurolidine, Bis-(1,1-dioxoperhydro-1,2,4-thiadiazinyl-4)methane]?
IC50 (U-251 glioma cells): 20.1 ± 2.7 µM; IC50 (A-549 lung tumor cells): 26.8 ± 7.2 µM; IC50 (HT-29 colon tumor cells): 18.6 ± 1 µM; IC50 [1]: 31.6 ± 7 µM; IC50 [2]: 11.9 ± 1.8 µM; IC50 ([2]; Mus musculus, NIH3T3, 72 h): ~10 µM; reduction in tumor foci [3]: 75-80%; ascites formation ([4]; 20 mg/mouse/injection x 3 d i.p. from day of tumor cell injection): no evidence of ascites formation; Mean tumor weight ([4]; 20 mg/mouse/injection x 3 d i.p. from day of tumor cell injection, nineteen days after injection): less than 50 mgs; mean tumor size versus controls [4, 9]: significantly smaller than in controls; mice tumor free upon sacrifice [4, 9]: approximately 10%; tumor growth ([4]; therapy initiated 5 d after tumor cell injection (established i.p. tumors)): significantly inhibiting tumor growth; mean tumor size in treated mice with tumors, smaller than control [4, 10]: approximately 40 fold; treated mice with no evidence of disease upon sacrifice [4, 10]: ~80%; patients in whom the tumor mass decreased or stayed the same ([5]; 20 g i.v. over 6 hours twice a week, at least one 5 week regimen): 3 out of the 4; tolerability in patients ([5]; i.p. lavage (recurrent ovarian tumors) or systemic (glioblastoma)): well tolerated; survival after initiation of therapy, each patient alive ([5]; prognosis approximately 8 weeks): ≥ 14 weeks; mortality (%) ([6]; 10 mg/mouse/inj): 6%; mortality (%) ([6]; 20 mg/mouse/inj): 13%; mortality (%) ([6]; 25 mg/mouse/inj): 47%; mortality (%) ([6]; 30 mg/mouse/inj): 100%; tolerability ([6]; daily doses below 15 mg/mouse (~650 mg/kg), 3 d i.p. regimen): well-tolerated; MTD ([6]; mouse, in vivo, ip): 20 mg/inj; maximally tolerated dose (MTD) ([6]; mouse, in vivo, ip): 20 mg/mouse; PARP cleavage (PA-1 cells): resulted in PARP cleavage; PARP cleavage (SKOV-3 cells): resulted in PARP cleavage; cells died [7]: 50%; factors controlling the growth of blood vessels [8]: decreased
